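Protocol summary: plate cells (96-well), add compound at 5 concentrations, incubate 48 h, interpolate endpoints linearly. GI50 marks 50% less growth.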 Calls of active or inactive are those of the source. Rule as the data show it: active = GI50 up to about 1.1 µM and inactive = higher.
How the values were obtained:
Experiment in all cases: inhibition of tumour cell growth, NCI panel, 48 h
CAKI-1 = system: CAKI-1
DU-145 = system: DU-145
HCC 2998 = system: HCC 2998
HL-60 = system: HL-60
HOP-62 = system: HOP-62
HT-29 = system: HT-29
Hs-578T = system: Hs-578T
KM12 = system: KM12
MDA-N = system: MDA-N
NCI-H460 = system: NCI-H460
OVCAR-4 = system: OVCAR-4
OVCAR-5 = system: OVCAR-5
RXF 393 = system: RXF 393
SF-295 = system: SF-295
SK-OV-3 = system: SK-OV-3
SNB-19 = system: SNB-19
SR = system: SR
TK-10 = system: TK-10
BT-549 = system: BT-549

Compound	GI50 (CAKI-1)	GI50 (DU-145)	GI50 (HCC 2998)	GI50 (HL-60)	GI50 (HOP-62)	GI50 (HT-29)	GI50 (Hs-578T)	GI50 (KM12)	GI50 (MDA-N)	GI50 (NCI-H460)	GI50 (OVCAR-4)	GI50 (OVCAR-5)	GI50 (RXF 393)	GI50 (SF-295)	GI50 (SK-OV-3)	GI50 (SNB-19)	GI50 (SR)	GI50 (TK-10)	GI50 (BT-549)
Cc1ccc(S(=O)(=O)NNC(=O)Nc2ccc(Cl)cc2)cc1	> 100 µM (inactive)	> 100 µM (inactive)	> 100 µM (inactive)	> 100 µM (inactive)	> 100 µM (inactive)	> 100 µM (inactive)	> 100 µM (inactive)	> 100 µM (inactive)	> 100 µM (inactive)	> 100 µM (inactive)	51.5 µM (inactive)	> 100 µM (inactive)	> 100 µM (inactive)	> 100 µM (inactive)	> 100 µM (inactive)	> 100 µM (inactive)	> 100 µM (inactive)	> 100 µM (inactive)	–
Oc1ccc2ccccc2c1NCn1nc(CCCCCCCCc2nn(CNc3c(O)ccc4ccccc34)c(=S)o2)oc1=S	> 100 µM (inactive)	> 100 µM (inactive)	> 100 µM (inactive)	–	> 100 µM (inactive)	25.5 µM (inactive)	–	28.9 µM (inactive)	37.6 µM (inactive)	> 100 µM (inactive)	> 100 µM (inactive)	> 100 µM (inactive)	–	> 100 µM (inactive)	> 100 µM (inactive)	> 100 µM (inactive)	–	> 100 µM (inactive)	> 100 µM (inactive)
COC1/C=C/C(C)C(C(C)C(OC)C(C)CCC(=O)C(C)C(CC(=O)O)OC)OC(=O)/C=C/C=C(\C)CC(OC)CC2=CC(=O)O[C@H](C2)C(C)C(OC)CC(OC)/C=C/C(C)C(OC)C1 (stereo partly drawn)	0.0621 µM (active)	0.548 µM (active)	2.62 µM (inactive)	0.118 µM (active)	0.45 µM (active)	0.916 µM (active)	0.0759 µM (active)	0.452 µM (active)	0.841 µM (active)	0.195 µM (active)	0.275 µM (active)	1.02 µM (active)	–	0.258 µM (active)	0.695 µM (active)	0.441 µM (active)	0.385 µM (active)	0.433 µM (active)	–
CC(=O)c1c(-c2ccc(Cl)cc2)c(C#N)c(=S)n(C2OC(CO)C(O)C(O)C2O)c1C (stereo not drawn)	–	> 100 µM (inactive)	> 100 µM (inactive)	26.9 µM (inactive)	65 µM (inactive)	30.1 µM (inactive)	–	40.4 µM (inactive)	30.8 µM (inactive)	37 µM (inactive)	38.5 µM (inactive)	> 100 µM (inactive)	98.2 µM (inactive)	54.6 µM (inactive)	82.8 µM (inactive)	31 µM (inactive)	30.3 µM (inactive)	70.6 µM (inactive)	–
COc1ccc(NC(C)=O)cc1N1C(=O)/C(=C\c2ccccc2)SC1c1cc(OC)c(OC)c(OC)c1 (stereo not drawn)	34.7 µM (inactive)	20.4 µM (inactive)	16.3 µM (inactive)	26.8 µM (inactive)	39.2 µM (inactive)	32.4 µM (inactive)	–	16.3 µM (inactive)	25.8 µM (inactive)	15.5 µM (inactive)	–	–	27 µM (inactive)	42.1 µM (inactive)	41 µM (inactive)	34 µM (inactive)	37.8 µM (inactive)	> 100 µM (inactive)	47.4 µM (inactive)
N#Cc1ccccc1OCCOc1ccccc1C#N	> 100 µM (inactive)	> 100 µM (inactive)	> 100 µM (inactive)	> 100 µM (inactive)	> 100 µM (inactive)	> 100 µM (inactive)	> 100 µM (inactive)	> 100 µM (inactive)	–	> 100 µM (inactive)	> 100 µM (inactive)	> 100 µM (inactive)	> 100 µM (inactive)	> 100 µM (inactive)	> 100 µM (inactive)	> 100 µM (inactive)	> 100 µM (inactive)	> 100 µM (inactive)	> 100 µM (inactive)
C=CC(C)(C)C(=C)C(=O)Nc1ccccc1I	> 100 µM (inactive)	> 100 µM (inactive)	> 100 µM (inactive)	–	> 100 µM (inactive)	> 100 µM (inactive)	> 100 µM (inactive)	> 100 µM (inactive)	> 100 µM (inactive)	> 100 µM (inactive)	> 100 µM (inactive)	> 100 µM (inactive)	> 100 µM (inactive)	> 100 µM (inactive)	> 100 µM (inactive)	> 100 µM (inactive)	86.1 µM (inactive)	–	–
CSc1nc(C)cc(N(C)c2ccccc2)n1	33 µM (inactive)	58.6 µM (inactive)	> 100 µM (inactive)	32.8 µM (inactive)	45.2 µM (inactive)	15.1 µM (inactive)	32.4 µM (inactive)	1.73 µM (inactive)	24.1 µM (inactive)	40.7 µM (inactive)	> 100 µM (inactive)	> 100 µM (inactive)	31 µM (inactive)	34.7 µM (inactive)	37.6 µM (inactive)	85.5 µM (inactive)	10.7 µM (inactive)	33.5 µM (inactive)	–
N#Cc1c(N2CCOCC2)ncn(-c2ccc(Cl)cc2)c1=O	> 100 µM (inactive)	> 100 µM (inactive)	> 100 µM (inactive)	18.1 µM (inactive)	> 100 µM (inactive)	–	–	> 100 µM (inactive)	> 100 µM (inactive)	> 100 µM (inactive)	–	> 100 µM (inactive)	–	> 100 µM (inactive)	> 100 µM (inactive)	> 100 µM (inactive)	> 100 µM (inactive)	–	> 100 µM (inactive)
CCN(C(=S)N[C@H](C(=O)N[C@@H](C)C(=O)OC)C(C)C)c1ccccc1	> 100 µM (inactive)	> 100 µM (inactive)	> 100 µM (inactive)	–	91.6 µM (inactive)	31.5 µM (inactive)	–	> 100 µM (inactive)	91.2 µM (inactive)	33.6 µM (inactive)	> 100 µM (inactive)	> 100 µM (inactive)	62.1 µM (inactive)	> 100 µM (inactive)	> 100 µM (inactive)	> 100 µM (inactive)	18.9 µM (inactive)	88.5 µM (inactive)	> 100 µM (inactive)
N#CC(C(=O)C(=O)C(C#N)c1ccc(Br)cc1)c1ccc(Br)cc1 (stereo not drawn)	21 µM (inactive)	–	12 µM (inactive)	4.06 µM (inactive)	13.2 µM (inactive)	8.59 µM (inactive)	–	10.6 µM (inactive)	–	16 µM (inactive)	12.3 µM (inactive)	18.2 µM (inactive)	4.26 µM (inactive)	13.6 µM (inactive)	15.7 µM (inactive)	17 µM (inactive)	6.37 µM (inactive)	16.8 µM (inactive)	–
COc1ccccc1C(=O)c1c(N2CCCCC2)c(=O)c1=O	> 100 µM (inactive)	> 100 µM (inactive)	> 100 µM (inactive)	> 100 µM (inactive)	> 100 µM (inactive)	> 100 µM (inactive)	–	78.7 µM (inactive)	> 100 µM (inactive)	> 100 µM (inactive)	> 100 µM (inactive)	> 100 µM (inactive)	> 100 µM (inactive)	> 100 µM (inactive)	> 100 µM (inactive)	> 100 µM (inactive)	–	> 100 µM (inactive)	> 100 µM (inactive)
CC1=NN(c2nc(N)nc(CO)n2)C(C)(C)C1	> 100 µM (inactive)	> 100 µM (inactive)	> 100 µM (inactive)	> 100 µM (inactive)	> 100 µM (inactive)	> 100 µM (inactive)	> 100 µM (inactive)	> 100 µM (inactive)	–	–	> 100 µM (inactive)	> 100 µM (inactive)	> 100 µM (inactive)	> 100 µM (inactive)	> 100 µM (inactive)	> 100 µM (inactive)	–	> 100 µM (inactive)	> 100 µM (inactive)
COc1ccc(/C(Cl)=C(\C#N)c2ccc(OC)c(OC)c2)cc1OC	54.2 µM (inactive)	> 100 µM (inactive)	> 100 µM (inactive)	15.3 µM (inactive)	43.7 µM (inactive)	38.6 µM (inactive)	–	–	> 100 µM (inactive)	36.8 µM (inactive)	81.5 µM (inactive)	> 100 µM (inactive)	38.6 µM (inactive)	61.5 µM (inactive)	–	> 100 µM (inactive)	40.2 µM (inactive)	> 100 µM (inactive)	57.7 µM (inactive)
COC1=CCC2=C(CCN(C(=O)C3CC3)C2Cc2ccc(OC)c(O)c2)C1 (stereo not drawn)	83.4 µM (inactive)	> 100 µM (inactive)	35.1 µM (inactive)	26.7 µM (inactive)	61.8 µM (inactive)	45.9 µM (inactive)	69.2 µM (inactive)	37.2 µM (inactive)	–	42 µM (inactive)	42.5 µM (inactive)	> 100 µM (inactive)	13.5 µM (inactive)	57.8 µM (inactive)	> 100 µM (inactive)	> 100 µM (inactive)	4.8 µM (inactive)	67.1 µM (inactive)	–
CN(C)c1ccc(/C=c2/c3ccccc3n3c2cc(NC(=O)NCCC[N+](C)(C)C)[n+]3C)cc1	> 100 µM (inactive)	> 100 µM (inactive)	–	42.9 µM (inactive)	> 100 µM (inactive)	> 100 µM (inactive)	> 100 µM (inactive)	> 100 µM (inactive)	–	> 100 µM (inactive)	22.2 µM (inactive)	> 100 µM (inactive)	> 100 µM (inactive)	53.7 µM (inactive)	> 100 µM (inactive)	64.1 µM (inactive)	75.9 µM (inactive)	> 100 µM (inactive)	> 100 µM (inactive)

— ChEMBL document CHEMBL1201862, “PubChem BioAssay data set” (2004)
